Square brackets hold non-standard residues; d marks the D form. Ends that are not written are not given here. pS = N[C@@H](COP(=O)(O)O)C(=O)O
Key:
Format in all cases: in vivo
[1] = test system: mammary gland of lactating dairy cows; assay: Field study of involution induction: change in lactose content of milk samples after a single intramammary infusion at dry-off; settings: for Changes in Lactose content in milk samples, Day 1, Mean / Changes in Lactose content in milk samples, Day 2, Mean / Changes in Lactose content in milk samples, Day 3, Mean: difference in lactose concentration vs Day 0, single intramammary infusion, peptides 4 mg in 10 ml, casein hydrolyzate 20 ml; for Changes in Lactose content in milk samples, Day 1, Mean: Day 1 post treatment; for Changes in Lactose content in milk samples, Day 2, Mean: Day 2 post treatment; for Changes in Lactose content in milk samples, Day 3, Mean: Day 3 post treatment
Experimental: (§1) A filed study was performed to assess the potential of a single intramammary dose of the synthetic peptides of the invention administered at dry (i.e. at the day in which milking is ceased), to induce rapid involution.
(§2) Total of 107 dairy cows were enrolled to the study, of which 45 received treatment and 62 served as a control. All cows were dairy cows at their first or further lactation that stand the inclusion/exclusion criteria. The study was a controlled blinded case-control study.
(§3) Case subjects received one dose by intramammary infusion of a particular peptide. Controls were lactating cows that received the following products by intramammary administration:
(§4) Five groups of 9 cows (total of 36 udder quarters per group) were scheduled as case groups. Each group was treated with one out of the five (5) phosphopeptides described in Example 1 hereinabove (P241210-01-01; 03; 05; 07 and 09). The peptides were administered once via intramammary infusion of 10 ml containing 4 mg peptide.
(§5) Set one: Five groups of 9 cows (total of 36 udder quarters per group) were scheduled as a first control set. Each group was treated with one out of the five (5) dephosphorylated peptides described in Example 1 hereinabove (P241210-01-02; 04; 06; 08 and 10). The peptides were administered once via intramammary infusion of 10 ml containing 4 mg peptide.
(§6) (i) Eleven cows (total of 44 udder quarters) treated with casein hydrolyzate (20 ml) administered once via intramammary infusion of 20 ml (around 1.8 mg/ml casein phosphopeptide (CPP), total=36 mg CPP for 20 ml)
(§7) All treatments (peptides, casein hydrolyzate and saline) were administered at the time point scheduled for cessation of milking (dry off). The day of administration was set as Day 0.
(§8) Sets of aseptic milk samples were collected in two separate vials once a day in the milking facility after the morning milking, on Day 0 and in post-treatment days 1, 2 and 3. The sampling time points were set to up to three days after treatment administration to ensure sufficient milk secretion for the measurements of all involution parameters. The volume of the samples was between 30 to 50 ml. The pH of the milk sample was measured in situ using a Cyberscan pH11 meter (Eutech Instruments, Singapore). The apparatus was calibrated each day by immersing the receptor in standard buffers of pH 7.0 and pH 4.01. Measurements were taken twice for each sample obtained from a mammary gland, with an interval of 30 seconds between measurements. pH measurement was repeated on-site by using the same sample vial. Before double-pH measurement, the milk sample vials were gently shaken three (3) times. After the pH measurement, the milk samples vials were kept in cool storage with a preservative product (Broad Spectrum Microtabs II—Bronopol and Metamycin—D&F Control System Inc., Two Technology Way, Norwood Mass. 02062 USA).
Lactose values in the milk samples were determined at the Central Laboratory of Milk Quality, Caesaria Industrial Park, Israel, according to ISO 2266211DF 198:2007.
Data from six quarters were excluded from the analysis of lactose changes. Data from one of those quarters were omitted due to a missing initial value. For the other five quarters, lactose concentrations taken during the three follow-up days could not be analyzed due to a rapid mammary involution process, resulting in non-sufficient milk sample for lactose analysis.
(§9) Endpoint Measures: pH, lactose and somatic cell counts (SCC) values from milk secretions at day 0 and during three (3) days post-treatment were taken. Results are described as the difference between the measures at each of the 3 days post treatment and the measured level at Day 0.
One of the most significant outcomes of involution in terms of milk composition is a reduction in lactose content. Thus, lactose concentration was also measured in the milk samples taken before and after peptide or CNH administration as described for the pH measurements hereinabove. […]

[2] = test system: mammary gland of lactating dairy cows; assay: Field study of involution induction: change of pH in milk samples after a single intramammary infusion at dry-off; settings: for Changes of pH in milk samples, Day 1, Mean / Changes of pH in milk samples, Day 2, Mean / Changes of pH in milk samples, Day 3, Mean: difference in pH vs Day 0, single intramammary infusion, peptides 4 mg in 10 ml, casein hydrolyzate 20 ml; for Changes of pH in milk samples, Day 1, Mean: Day 1 post treatment; for Changes of pH in milk samples, Day 2, Mean: Day 2 post treatment; for Changes of pH in milk samples, Day 3, Mean: Day 3 post treatment
Experimental: as §1, §2, §3, §4, §5, §6, §7, §8, §9
Table 2 below summarizes the effect of the peptides examined and of casein hydrolyzate (CNH) on the pH of milk samples taken 1, 2 and 3 days after the one-dose treatment with each peptide or CNH. The results are presented as the difference in pH value between each of the days post treatment and Day 0 (before treatment).

[3] = test system: mammary gland of lactating dairy cows; assay: Field study of involution induction: change in somatic cell counts in milk samples after a single intramammary infusion at dry-off; settings: for Changes in Somatic Cell Counts in milk samples, Day 1, Mean / Changes in Somatic Cell Counts in milk samples, Day 2, Mean / Changes in Somatic Cell Counts in milk samples, Day 3, Mean: change vs Day 0, calculated from log transformation of raw data, single intramammary infusion, peptides 4 mg in 10 ml, casein hydrolyzate 20 ml; for Changes in Somatic Cell Counts in milk samples, Day 1, Mean: Day 1 post treatment; for Changes in Somatic Cell Counts in milk samples, Day 2, Mean: Day 2 post treatment; for Changes in Somatic Cell Counts in milk samples, Day 3, Mean: Day 3 post treatment
Experimental: as §1, §2, §3, §4, §5, §6, §7, §8
Somatic cell count was also determined in milk samples by Fossomatic 360 (Foss Electric, Hillerod, Denmark), and based on guidelines from the USA National Mastitis Council. Laboratory Handbook on Bovine Mastitis. 1999. Ed. National Mastitis Council, Verona, Wis. 53593 USA.
as §9
Additional parameter that may be used to establish the progression of the involution process is the presence of somatic cells within the milk. The increase in cell count within the milk is the result of high degree of apoptotic epithelial cell death associated with involution. […] The results presented in the table were calculated from log transformation of the raw data that were highly variable.

Row | Substance | Changes in Lactose content in milk samples, Day 1, Mean [1] | Changes in Lactose content in milk samples, Day 2, Mean [1] | Changes in Lactose content in milk samples, Day 3, Mean [1] | Changes of pH in milk samples, Day 1, Mean [2] | Changes of pH in milk samples, Day 2, Mean [2] | Changes of pH in milk samples, Day 3, Mean [2] | Changes in Somatic Cell Counts in milk samples, Day 1, Mean [3] | Changes in Somatic Cell Counts in milk samples, Day 2, Mean [3] | Changes in Somatic Cell Counts in milk samples, Day 3, Mean [3] | effect on the reduction of lactose content, in words ([1]; all time points examined, compared with CNH) | effect on the milk pH, in words ([2]; compared with the other peptides and casein hydrolyzate, particularly first 2 days after treatment) | induction of involution, overall conclusion in words ([3]; conclusion from pH, lactose and somatic cell count results)
1 | ESLSSSEE-NH2 [D] | −0.749 | −1.387 | −0.090 | 0.000 | −0.027 | 0.013 | 0.387 | 1.023 | −0.249 | – | – | –
2 | Glu-Ser(P)-Leu-Ser(P)-Ser(P)-Ser(P)-Glu-Glu-NH2 (E[pS]L[pS][pS][pS]EE-NH2; N-terminus assumed; SMILES CC(C)C[C@H](NC(=O)[C@H](COP(=O)(O)O)NC(=O)[C@@H](N)CCC(=O)O)C(=O)N[C@@H](COP(=O)(O)O)C(=O)N[C@@H](COP(=O)(O)O)C(=O)N[C@@H](COP(=O)(O)O)C(=O)N[C@@H](CCC(=O)O)C(=O)N[C@@H](CCC(=O)O)C(N)=O) [D(p), casein-derived peptide, positive control] | −0.431 | −1.460 | −2.180 | 0.027 | −0.018 | 0.077 | 0.383 | 1.181 | 1.998 | – | – | –
3 | KKSLSS-NH2 [A] | −0.463 | −1.268 | −1.773 | 0.048 | −0.002 | 0.072 | 0.911 | 1.571 | 2.090 | – | – | –
4 | KSSSEE-NH2 | −0.368 | −1.531 | −1.675 | 0.047 | −0.028 | 0.115 | −0.186 | 0.843 | 1.492 | – | – | –
5 | Lys-Lys-Ser(P)-Leu-Ser(P)-Ser(P)-Ser(P)-NH2 (KK[pS]L[pS][pS][pS]-NH2; N-terminus assumed; SMILES CC(C)C[C@H](NC(=O)[C@H](COP(=O)(O)O)NC(=O)[C@H](CCCCN)NC(=O)[C@@H](N)CCCCN)C(=O)N[C@@H](COP(=O)(O)O)C(=O)N[C@@H](COP(=O)(O)O)C(=O)N[C@@H](COP(=O)(O)O)C(N)=O) [A(p)] | −0.462 | −1.364 | −1.771 | 0.016 | 0.020 | 0.118 | 0.592 | 1.212 | 1.829 | – | – | –
6 | Lys-Lys-Ser(P)-Ser(P)-NH2 (KK[pS][pS]-NH2; N-terminus assumed; SMILES NCCCC[C@H](NC(=O)[C@@H](N)CCCCN)C(=O)N[C@@H](COP(=O)(O)O)C(=O)N[C@@H](COP(=O)(O)O)C(N)=O) [C(p)] | −0.509 | −1.427 | −0.345 | 0.066 | 0.046 | 0.119 | −0.129 | 0.961 | 0.195 | – | – | –
7 | Lys-Lys-Ser(P)-Ser(P)-Ser(P)-NH2 (KK[pS][pS][pS]-NH2; N-terminus assumed; SMILES NCCCC[C@H](NC(=O)[C@@H](N)CCCCN)C(=O)N[C@@H](COP(=O)(O)O)C(=O)N[C@@H](COP(=O)(O)O)C(=O)N[C@@H](COP(=O)(O)O)C(N)=O) [B(p)] | −1.250 | −2.013 | −2.521 | 0.171 | 0.165 | 0.163 | 3.129 | 3.099 | 3.451 | higher effect on the reduction of lactose content compared to the effect of CNH | showed the most significant effect on the milk pH | highly effective in inducing involution
8 | Lys-Lys-Ser-Ser-NH2 [C] | −0.846 | −1.554 | −0.387 | 0.034 | −0.006 | −0.001 | 0.511 | 1.194 | 0.650 | – | – | –
9 | Lys-Lys-Ser-Ser-Ser-NH2 [B] | −0.320 | −0.969 | −1.412 | −0.015 | −0.019 | 0.065 | 0.109 | 0.664 | 1.191 | – | – | –

Reference: patent US9487557B2, “Peptides for management of lactation” (MILEUTIS LTD., priority 2012, dated 2016)
